One assay concerns the target Recombinant ROCK1 (Homo sapiens (Human), UniProt Q13464). Kind of assay: Lance Ultra Kinase Assay, ROCK1 inhibition. The class given is biochemical. The conditions noted are these: ATP at Km, 30 min pre-incubation, 1 h reaction.
The target of the next assay is Recombinant ROCK2 (Homo sapiens (Human), UniProt O75116). As to the kind of experiment: Lance Ultra Kinase Assay, ROCK2 inhibition. It is filed as biochemical. The settings on record: ATP at Km, 30 min pre-incubation, 1 h reaction.
Chain of Recombinant ROCK2 (O75116 whole entry): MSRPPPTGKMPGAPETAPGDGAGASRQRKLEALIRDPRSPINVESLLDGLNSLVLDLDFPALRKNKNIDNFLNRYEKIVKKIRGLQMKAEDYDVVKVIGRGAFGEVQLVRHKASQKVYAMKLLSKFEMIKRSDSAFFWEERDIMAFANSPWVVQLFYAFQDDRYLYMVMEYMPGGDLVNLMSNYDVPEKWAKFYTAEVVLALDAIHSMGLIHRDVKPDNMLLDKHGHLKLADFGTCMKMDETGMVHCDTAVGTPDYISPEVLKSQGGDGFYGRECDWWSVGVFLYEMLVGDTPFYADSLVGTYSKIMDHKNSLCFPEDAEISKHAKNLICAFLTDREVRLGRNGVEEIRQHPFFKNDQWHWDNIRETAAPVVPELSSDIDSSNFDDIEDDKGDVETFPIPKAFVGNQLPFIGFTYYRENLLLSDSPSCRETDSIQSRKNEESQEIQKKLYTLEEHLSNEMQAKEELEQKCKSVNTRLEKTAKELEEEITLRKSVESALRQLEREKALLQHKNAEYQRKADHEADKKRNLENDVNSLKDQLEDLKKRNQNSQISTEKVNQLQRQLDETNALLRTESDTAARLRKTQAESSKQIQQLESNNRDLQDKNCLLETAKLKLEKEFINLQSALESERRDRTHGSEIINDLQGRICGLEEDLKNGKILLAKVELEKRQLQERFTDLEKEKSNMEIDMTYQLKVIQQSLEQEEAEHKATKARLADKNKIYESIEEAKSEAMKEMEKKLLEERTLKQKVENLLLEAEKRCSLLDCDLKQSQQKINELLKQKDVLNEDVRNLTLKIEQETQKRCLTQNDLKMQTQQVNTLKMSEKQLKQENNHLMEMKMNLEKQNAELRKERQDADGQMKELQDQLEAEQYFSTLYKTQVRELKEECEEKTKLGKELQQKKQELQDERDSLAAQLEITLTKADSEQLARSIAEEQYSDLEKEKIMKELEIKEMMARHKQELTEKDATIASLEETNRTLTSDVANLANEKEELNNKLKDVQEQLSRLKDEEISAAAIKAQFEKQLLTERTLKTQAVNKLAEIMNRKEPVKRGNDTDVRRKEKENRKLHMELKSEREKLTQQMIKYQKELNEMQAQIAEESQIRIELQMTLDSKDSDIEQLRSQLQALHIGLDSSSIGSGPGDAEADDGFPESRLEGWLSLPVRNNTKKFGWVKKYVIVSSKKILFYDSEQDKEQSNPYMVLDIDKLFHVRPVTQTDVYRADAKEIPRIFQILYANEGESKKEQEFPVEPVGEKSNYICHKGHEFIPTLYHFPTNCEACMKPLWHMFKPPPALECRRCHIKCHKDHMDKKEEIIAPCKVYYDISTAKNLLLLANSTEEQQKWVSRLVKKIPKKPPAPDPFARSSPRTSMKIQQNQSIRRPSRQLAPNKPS

For 21 compounds, IC50 results are on record in US20250346616A1 (DIZAL (JIANGSU) PHARMACEUTICAL CO., LTD., priority 2022, published 2025).

Chain of Recombinant ROCK1 (Q13464 whole entry): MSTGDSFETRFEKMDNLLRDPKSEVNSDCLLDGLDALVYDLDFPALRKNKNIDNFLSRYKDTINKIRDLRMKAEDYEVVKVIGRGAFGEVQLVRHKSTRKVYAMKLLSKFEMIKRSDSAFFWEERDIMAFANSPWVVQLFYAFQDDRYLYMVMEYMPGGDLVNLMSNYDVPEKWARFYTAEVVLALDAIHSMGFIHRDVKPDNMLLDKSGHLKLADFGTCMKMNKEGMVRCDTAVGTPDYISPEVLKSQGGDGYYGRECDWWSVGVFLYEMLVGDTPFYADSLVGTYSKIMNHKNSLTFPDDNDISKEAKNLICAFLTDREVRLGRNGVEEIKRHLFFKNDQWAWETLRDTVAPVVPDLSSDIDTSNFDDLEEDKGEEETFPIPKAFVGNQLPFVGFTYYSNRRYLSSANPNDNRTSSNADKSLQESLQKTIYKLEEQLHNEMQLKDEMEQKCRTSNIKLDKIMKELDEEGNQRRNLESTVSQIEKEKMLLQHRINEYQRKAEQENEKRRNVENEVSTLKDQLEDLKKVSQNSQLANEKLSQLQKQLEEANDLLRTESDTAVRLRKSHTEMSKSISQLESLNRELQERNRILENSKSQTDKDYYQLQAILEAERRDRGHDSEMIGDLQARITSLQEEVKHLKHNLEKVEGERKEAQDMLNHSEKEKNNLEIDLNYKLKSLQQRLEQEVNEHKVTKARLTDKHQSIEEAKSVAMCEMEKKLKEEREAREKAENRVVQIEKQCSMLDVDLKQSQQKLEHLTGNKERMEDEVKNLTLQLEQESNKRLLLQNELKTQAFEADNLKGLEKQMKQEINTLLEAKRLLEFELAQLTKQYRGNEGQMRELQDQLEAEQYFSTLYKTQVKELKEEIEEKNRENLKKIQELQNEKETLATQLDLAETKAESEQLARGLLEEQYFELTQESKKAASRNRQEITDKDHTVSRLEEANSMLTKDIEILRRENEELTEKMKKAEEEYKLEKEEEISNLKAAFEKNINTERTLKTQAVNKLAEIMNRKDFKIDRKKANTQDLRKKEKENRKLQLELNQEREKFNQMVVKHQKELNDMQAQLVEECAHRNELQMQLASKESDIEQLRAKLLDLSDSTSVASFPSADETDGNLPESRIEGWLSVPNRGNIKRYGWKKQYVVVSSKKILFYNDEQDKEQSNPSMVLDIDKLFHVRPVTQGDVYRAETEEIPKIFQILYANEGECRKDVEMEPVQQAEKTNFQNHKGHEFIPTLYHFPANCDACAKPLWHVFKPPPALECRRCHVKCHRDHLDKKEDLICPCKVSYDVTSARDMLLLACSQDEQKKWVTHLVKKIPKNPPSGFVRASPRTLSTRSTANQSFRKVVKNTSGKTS
Description for Recombinant ROCK2: The inhibition potency of compounds against these enzymes was assessed using Lance Ultra Kinase Assay. In brief, recombinant kinases were pre-incubated in the presence or absence of compound at room temperature for 30 minutes. The reaction was initiated by the addition of the ATP (Km) and substrate peptide which could be phosphorylated by kinases in the reaction. After 1 h incubation, the reaction was stopped by the addition of the detection reagent mix containing EDTA. The fluorescence was measured at 615 nm and 665 nm, respectively with excitation wavelength at 320 nm. The calculated signal ratio of 665 nm/615 nm is proportional to the kinase activity.

In the case of `COc1cccc(C(CN2CCN(C)CC2)C(=O)Nc2cccc3c(-c4cn[nH]c4)c[nH]c23)c1` (single isomer, unassigned) [Example 36, N-(3-(1H-pyrazol-4-yl)-1H-indol-7-yl)-2-(3-methoxyphenyl)-3-(4-methylpiperazin-1-yl)propanamide], the IC50 at Recombinant ROCK1 came out at 0.321 µM; on Recombinant ROCK2 it was 0.174 µM.
On to `CN1CCN(CC(C(=O)Nc2cccc3c(-c4cn[nH]c4)c[nH]c23)c2ccccc2)CC1` (single isomer, unassigned) [Example 39, N-(3-(1H-pyrazol-4-yl)-1H-indol-7-yl)-3-(4-methylpiperazin-1-yl)-2-phenylpropanamide], for which the IC50 at Recombinant ROCK1 was 0.175 µM; at Recombinant ROCK2, 0.116 µM.
For `CN1CCC(C(C(=O)Nc2cccc3c(-c4cn[nH]c4)c[nH]c23)c2ccccc2)CC1` (single isomer, unassigned) [Example 44, N-(3-(1H-pyrazol-4-yl)-1H-indol-7-yl)-2-(1-methylpiperidin-4-yl)-2-phenylacetamide], the results for the IC50 at Recombinant ROCK1 and at Recombinant ROCK2 were 0.111 µM and 0.07 µM, respectively.
On to `CN1CCN(C(C(=O)Nc2cccc3c(-c4cn[nH]c4)c[nH]c23)c2ccccc2)CC1` (single isomer, unassigned) [Example 47, N-(3-(1H-pyrazol-4-yl)-1H-indol-7-yl)-2-(4-methylpiperazin-1-yl)-2-phenylacetamide], for which the IC50 was determined as 0.201 µM at Recombinant ROCK1 and 0.121 µM at Recombinant ROCK2.
In the case of `CN1CCN(C(C(=O)Nc2cccc3c(-c4cn[nH]c4)c[nH]c23)c2ccccc2)CC1` (single isomer, unassigned) [Example 48, N-(3-(1H-pyrazol-4-yl)-1H-indol-7-yl)-2-(4-methylpiperazin-1-yl)-2-phenylacetamide], the IC50 at Recombinant ROCK1 came to 0.0016 µM; at Recombinant ROCK2 it was 0.00084 µM.
As for `CNC(=O)OCc1cccc(C(CN)C(=O)Nc2cccc3c(-c4cn[nH]c4)c[nH]c23)c1` (single isomer, unassigned) [Example 50, 3-(1-((3-(1H-pyrazol-4-yl)-1H-indol-7-yl)amino)-3-amino-1-oxopropan-2-yl)benzyl methylcarbamate], the IC50 was found to be 0.00032 µM on Recombinant ROCK1 and 0.00022 µM at Recombinant ROCK2.
In the case of `CNC(=O)OCc1cccc(C(CN)C(=O)Nc2cccc3c(-c4cn[nH]c4)c[nH]c23)c1` (single isomer, unassigned) [Example 51, 3-(1-((3-(1H-pyrazol-4-yl)-1H-indol-7-yl)amino)-3-amino-1-oxopropan-2-yl)benzyl methylcarbamate], the IC50 worked out at 0.033 µM at Recombinant ROCK1 and 0.022 µM on Recombinant ROCK2.
Turning to `N#Cc1ccc(C(CN)C(=O)Nc2cccc3c(-c4cn[nH]c4)c[nH]c23)cc1` (single isomer, unassigned) [Example 58, N-(3-(1H-pyrazol-4-yl)-1H-indol-7-yl)-3-amino-2-(4-cyanophenyl)propanamide], the results for the IC50 at Recombinant ROCK1 and at Recombinant ROCK2 were 0.136 µM and 0.048 µM, respectively.
As to `NCC(C(=O)Nc1cccc2c(-c3cn[nH]c3)c[nH]c12)c1ccc(CO)nc1` (single isomer, unassigned) [Example 61, N-(3-(1H-pyrazol-4-yl)-1H-indol-7-yl)-3-amino-2-(6-(hydroxymethyl)pyridin-3-yl)propanamide], the IC50 is 0.026 µM at Recombinant ROCK1 and 0.0089 µM on Recombinant ROCK2.
As to `Cc1cncc(C(CN)C(=O)Nc2cccc3c(-c4cn[nH]c4)c[nH]c23)c1` (single isomer, unassigned) [Example 62, N-(3-(1H-pyrazol-4-yl)-1H-indol-7-yl)-3-amino-2-(5-methylpyridin-3-yl)propanamide], the IC50 stood at 0.068 µM on Recombinant ROCK1 and 0.031 µM at Recombinant ROCK2.
For `Cc1cncc(C(CN)C(=O)Nc2cccc3c(-c4cn[nH]c4)c[nH]c23)c1` (single isomer, unassigned) [Example 63, N-(3-(1H-pyrazol-4-yl)-1H-indol-7-yl)-3-amino-2-(5-methylpyridin-3-yl)propanamide], the IC50 was found to be 0.00043 µM at Recombinant ROCK1 and 0.00024 µM on Recombinant ROCK2.
As to `NCC(C(=O)Nc1cccc2c(-c3cn[nH]c3)c[nH]c12)c1cccc(O)c1` (single isomer, unassigned) [Example 64, N-(3-(1H-pyrazol-4-yl)-1H-indol-7-yl)-3-amino-2-(3-hydroxyphenyl)propanamide], the figures for the IC50 on Recombinant ROCK1 and at Recombinant ROCK2 were 0.00037 µM and 0.00019 µM, respectively.
In the case of `NCC(C(=O)Nc1cccc2c(-c3cn[nH]c3)c[nH]c12)c1cccc(O)c1` (single isomer, unassigned) [Example 65, N-(3-(1H-pyrazol-4-yl)-1H-indol-7-yl)-3-amino-2-(3-hydroxyphenyl)propanamide], the figures for the IC50 at Recombinant ROCK1 and at Recombinant ROCK2 were 0.0044 µM and 0.0025 µM, respectively.
For `CN1CCN(CC(C(=O)Nc2cccc3c(-c4cn[nH]c4)c[nH]c23)c2cccnc2)CC1` (single isomer, unassigned) [Example 66, N-(3-(1H-pyrazol-4-yl)-1H-indol-7-yl)-3-(4-methylpiperazin-1-yl)-2-(pyridin-3-yl)propanamide], in that order: 0.604 µM and 0.31 µM.
In the case of `CN1CCN(CC(C(=O)Nc2cccc3c(-c4cn[nH]c4)c[nH]c23)c2cccnc2)CC1` (single isomer, unassigned) [Example 67, N-(3-(1H-pyrazol-4-yl)-1H-indol-7-yl)-3-(4-methylpiperazin-1-yl)-2-(pyridin-3-yl)propanamide], the IC50 at Recombinant ROCK1 was found to be 0.0026 µM; at Recombinant ROCK2 it was 0.0016 µM.
For `N#Cc1cccc([C@@H](N)C(=O)Nc2cccc3c(-c4cn[nH]c4)c[nH]c23)c1` (single isomer, unassigned) [Example 68, N-(3-(1H-pyrazol-4-yl)-1H-indol-7-yl)-2-amino-2-(3-cyanophenyl) acetamide], in that order: 0.004 µM and 0.0015 µM.
For the compound `N#Cc1cccc([C@H](N)C(=O)Nc2cccc3c(-c4cn[nH]c4)c[nH]c23)c1` (single isomer, unassigned) [Example 69, N-(3-(1H-pyrazol-4-yl)-1H-indol-7-yl)-2-amino-2-(3-cyanophenyl) acetamide], the values for the IC50 at Recombinant ROCK1 and at Recombinant ROCK2 were 0.021 µM and 0.0092 µM, respectively.
For `COc1cncc(C(CN2CCN(C)CC2)C(=O)Nc2cccc3c(-c4cn[nH]c4)c[nH]c23)c1` (single isomer, unassigned) [Example 110, N-(3-(1H-pyrazol-4-yl)-1H-indol-7-yl)-2-(5-methoxypyridin-3-yl)-3-(4-methylpiperazin-1-yl)propanamide], the IC50 on Recombinant ROCK1 came to 0.0066 µM; on Recombinant ROCK2, 0.0033 µM.
As for `COc1cncc(C(CN2CCN(C)CC2)C(=O)Nc2cccc3c(-c4cn[nH]c4)c[nH]c23)c1` (single isomer, unassigned) [Example 111, N-(3-(1H-pyrazol-4-yl)-1H-indol-7-yl)-2-(5-methoxypyridin-3-yl)-3-(4-methylpiperazin-1-yl)propanamide], the results for the IC50 at Recombinant ROCK1 and at Recombinant ROCK2 were 0.297 µM and 0.167 µM, respectively.
As to `NCC(C(=O)Nc1cccc2c(-c3cn[nH]c3)c[nH]c12)c1ccc(C(N)=O)cc1` (single isomer, unassigned) [Example 112, 4-(1-((3-(1H-pyrazol-4-yl)-1H-indol-7-yl)amino)-3-amino-1-oxopropan-2-yl)benzamide], the figures for the IC50 on Recombinant ROCK1 and at Recombinant ROCK2 were 0.0013 µM and 0.00047 µM, respectively.
On to `NCC(C(=O)Nc1cccc2c(-c3cn[nH]c3)c[nH]c12)c1ccc(C(N)=O)cc1` (single isomer, unassigned) [Example 113, 4-(1-((3-(1H-pyrazol-4-yl)-1H-indol-7-yl)amino)-3-amino-1-oxopropan-2-yl)benzamide], for which the values for the IC50 on Recombinant ROCK1 and on Recombinant ROCK2 were 0.11 µM and 0.043 µM, respectively.
